Results taken from patent US20240100038A1, “USE OF THE AXL INHIBITOR SLC-391 AS ANTIVIRAL THERAPEUTIC AGENT” (SignalChem Lifesciences Corporation, priority 2021, published 2024).
Like-named read-outs stand apart in the source and are kept apart here.

What was measured:
[1] = test system: ZEB1; details: Stewart 2020; cited from earlier work
[2] = test system: SARS-CoV-2; details: cited from earlier work
[3] = test system: Ebola virus; details: animal models (Dowall 2016); cited from earlier work
[4] = test system: virus infection of wild type bone marrow-derived dendritic cells; details: wild type bone marrow-derived dendritic cells (Bhattacharyya 2013); cited from earlier work
[5] = test system: MER; details: cultured cell assays; cited from earlier work
[6] = test system: AXL; details: cultured cell assays; cited from earlier work
[7] = 28-day oral gavage GLP toxicology study in Beagle dogs
[8] = test system: influenza virus (Flu A); type: cell-based; details: for Fold of virus reduction: compared with virus control
[9] = test system: phosphorylated Akt; assay: Phosphorylated Akt in tumor xenograft samples; type: in vivo; details: oral administration
Source text: (§1) Significant in vivo pharmacology studies for SLC-391 have been completed in support of its oncology indication. The bioavailability of SLC-391 in vivo when administered orally (PO) (twice-daily [BID] and once-daily [QD]) were studied.

[10] = test system: human influenza virus (FluAPR834); details: Flu A, RPMI2650 cells
[11] = target: T1, AXL (Homo sapiens, UniProt P30530); assay: In vitro BaF3 cell assay, panel of 93 receptor tyrosine kinases; type: cell-based; parameters: expressed in transfected cells; host or cells: BaF3; details: at 100 nM
[12] = target: ALK1 (Homo sapiens, UniProt P37023); assay: Radiometric phosphotransferase assay, panel of 320 protein kinases; type: biochemical
Source text: (§2) The selectivity of SLC-391 was further evaluated against a panel of 320 protein kinases from the human kinome using a radiometric phosphotransferase assay.

[13] = target: c-MET (Homo sapiens, UniProt P08581); assay: as above; type: biochemical
Source text: as §2

[14] = target: Aurora C (Homo sapiens, UniProt Q9UQB9); assay: as above; type: biochemical
Source text: as §2

[15] = target: EPHA6 (Homo sapiens, UniProt Q9UF33); assay: as above; type: biochemical
Source text: as §2

[16] = target: NUAK1 (Homo sapiens, UniProt O60285); assay: as above; type: biochemical
Source text: as §2

[17] = target: ROS1 (Homo sapiens, UniProt P08922); assay: as above; type: biochemical
Source text: as §2

[18] = target: RET (Homo sapiens, UniProt P07949); assay: as above; type: biochemical
Source text: as §2

[19] = test system: human influenza virus (FluAPR834); assay: microbe, parasite or virus in culture; details: unidentified influenza virus, RPMI-2650, in Homo sapiens, 96 h, read-out: EC50 (inhibit CPE by 50%)
[20] = test system: A549 cell invasion; assay: Cell invasion; type: cell-based; details: Homo sapiens
[21] = 28-day oral gavage GLP toxicology study in Sprague-Dawley rats
[22] = target: T1, AXL; assay: AXL kinase inhibition; type: biochemical
Source text: as §2

[23] = target: T2, VEGFR1 (Homo sapiens, UniProt P17948); assay: In vitro BaF3 cell assay, panel of 93 receptor tyrosine kinases; type: cell-based; details: at 100 nM
T2 construct: expressed in transfected cells; host or cells: BaF3

[24] = test system: A549 cells; assay: Anchorage-independent cell proliferation; type: cell-based, human; details: at 1 μM in A549 cells
[25] = target: T3, MER (Homo sapiens, UniProt Q12866); assay: In vitro BaF3 cell assay, panel of 93 receptor tyrosine kinases; type: cell-based; parameters: expressed in transfected cells; host or cells: BaF3; details: at 100 nM
[26] = target: T4, FGFR3 (Homo sapiens, UniProt P22607); assay: as above; type: cell-based; details: at 100 nM
T4 construct: expressed in transfected cells; host or cells: BaF3

[27] = target: hERG (Homo sapiens, UniProt Q12809); assay: Standard hERG assay; type: biochemical
[28] = in vivo, po
[29] = test system: Salmonella tester strain TA98; assay: Ames screening test, TA98; type: cell-based; details: TA98, with and without liver S9 metabolic activation
Source text: (§3) In genotoxicity screening studies, SLC-391 was negative in Salmonella tester strains TA98 and TA100 (Ames screening test) with and without liver S9 metabolic activation.

[30] = test system: 4T1; assay: Cellular proliferation, 4T1; type: cell-based; details: Mus musculus
[31] = target: TYRO3 (Homo sapiens, UniProt Q06418); assay: TYRO3 kinase inhibition; type: biochemical
Source text: as §2

[32] = test system: K562; assay: Cellular proliferation, K562; type: cell-based; details: Homo sapiens
[33] = Flowscreen genotoxicity assay; type: cell-based
[34] = in vitro; details: human
[35] = test system: SARS-CoV-2; type: cell-based; details: Vero E6 cells
[36] = in vitro; details: human; remark: listed apart in the source
[37] = target: T3, MER; assay: MER kinase inhibition; type: biochemical
Source text: as §2

[38] = In vivo rat micronucleus assay; details: 70 mg/kg/day (highest dose)
[39] = Phase I study in subjects with solid tumors (SLC-391-101); details: clinical drug product, oral
[40] = test system: SARS-CoV-2 spike protein binding to ACE2; type: cell-based, SARS-CoV-2 / human; details: 1 μM, CHO-hACE2 cells, luciferase
[41] = in vivo; details: both, Sprague-Dawley, rat
[42] = test system: tumor growth; assay: In vivo tumor growth inhibition, oral administration
Source text: as §1

[43] = test system: Gas6-induced phosphorylation of Akt; assay: Inhibition of Gas6-induced phosphorylation of Akt in A549; type: cell-based; details: human NSCLC cell line A549
[44] = test system: Salmonella tester strain TA100; assay: Ames screening test, TA100; type: cell-based; details: TA100, with and without liver S9 metabolic activation
Source text: as §3

[45] = test system: A549; assay: Cell migration; type: cell-based, human; details: at 1 μM
[46] = 28-day oral gavage, Beagle dogs

T1 sequence (P30530 26-894): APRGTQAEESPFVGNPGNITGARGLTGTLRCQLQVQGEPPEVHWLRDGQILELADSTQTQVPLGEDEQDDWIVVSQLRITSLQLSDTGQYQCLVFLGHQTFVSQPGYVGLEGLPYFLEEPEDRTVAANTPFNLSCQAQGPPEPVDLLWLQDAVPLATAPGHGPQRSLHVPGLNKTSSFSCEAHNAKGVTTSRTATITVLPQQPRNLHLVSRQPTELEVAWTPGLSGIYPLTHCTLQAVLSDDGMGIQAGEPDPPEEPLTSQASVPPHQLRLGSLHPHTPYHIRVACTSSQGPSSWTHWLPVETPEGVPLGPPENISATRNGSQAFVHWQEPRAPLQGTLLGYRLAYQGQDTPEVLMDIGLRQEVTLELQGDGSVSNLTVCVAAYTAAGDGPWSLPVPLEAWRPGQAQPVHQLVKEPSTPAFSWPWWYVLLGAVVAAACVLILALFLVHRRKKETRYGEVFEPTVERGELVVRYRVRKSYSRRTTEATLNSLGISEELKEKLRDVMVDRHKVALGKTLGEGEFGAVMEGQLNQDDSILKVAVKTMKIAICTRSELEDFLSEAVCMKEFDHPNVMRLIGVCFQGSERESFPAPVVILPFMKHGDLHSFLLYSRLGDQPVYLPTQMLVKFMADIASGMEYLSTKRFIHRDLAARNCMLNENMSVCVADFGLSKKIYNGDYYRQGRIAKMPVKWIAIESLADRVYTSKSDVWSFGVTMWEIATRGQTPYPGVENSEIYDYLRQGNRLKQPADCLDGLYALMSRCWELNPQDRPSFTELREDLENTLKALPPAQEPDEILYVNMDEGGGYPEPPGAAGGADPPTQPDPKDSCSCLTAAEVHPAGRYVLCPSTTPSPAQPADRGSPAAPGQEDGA
T3 sequence (Q12866 21-999): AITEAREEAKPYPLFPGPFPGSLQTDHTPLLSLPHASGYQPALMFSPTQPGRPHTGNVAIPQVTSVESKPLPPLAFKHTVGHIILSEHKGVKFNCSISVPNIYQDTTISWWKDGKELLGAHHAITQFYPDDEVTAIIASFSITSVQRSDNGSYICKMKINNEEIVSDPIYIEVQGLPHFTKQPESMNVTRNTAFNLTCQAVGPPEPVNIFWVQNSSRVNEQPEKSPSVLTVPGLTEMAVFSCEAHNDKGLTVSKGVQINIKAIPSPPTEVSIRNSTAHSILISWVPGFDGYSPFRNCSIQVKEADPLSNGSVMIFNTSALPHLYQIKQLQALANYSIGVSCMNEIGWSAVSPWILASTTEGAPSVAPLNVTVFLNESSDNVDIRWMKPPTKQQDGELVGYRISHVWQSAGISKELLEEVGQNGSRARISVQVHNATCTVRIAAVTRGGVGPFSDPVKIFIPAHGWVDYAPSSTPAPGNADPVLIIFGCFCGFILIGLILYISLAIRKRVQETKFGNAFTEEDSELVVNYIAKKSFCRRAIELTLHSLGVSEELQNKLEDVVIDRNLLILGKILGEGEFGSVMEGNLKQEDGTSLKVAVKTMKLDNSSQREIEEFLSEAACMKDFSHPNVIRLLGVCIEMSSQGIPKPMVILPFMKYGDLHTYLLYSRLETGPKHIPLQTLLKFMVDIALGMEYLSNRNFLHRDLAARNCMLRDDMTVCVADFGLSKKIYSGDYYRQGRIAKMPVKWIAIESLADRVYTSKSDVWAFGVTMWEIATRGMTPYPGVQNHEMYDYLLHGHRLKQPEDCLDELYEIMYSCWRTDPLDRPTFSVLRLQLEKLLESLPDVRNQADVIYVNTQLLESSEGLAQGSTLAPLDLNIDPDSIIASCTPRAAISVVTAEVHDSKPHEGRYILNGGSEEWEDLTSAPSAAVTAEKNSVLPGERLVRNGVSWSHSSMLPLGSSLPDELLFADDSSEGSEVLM
Sequence of c-MET (P08581 25-1390): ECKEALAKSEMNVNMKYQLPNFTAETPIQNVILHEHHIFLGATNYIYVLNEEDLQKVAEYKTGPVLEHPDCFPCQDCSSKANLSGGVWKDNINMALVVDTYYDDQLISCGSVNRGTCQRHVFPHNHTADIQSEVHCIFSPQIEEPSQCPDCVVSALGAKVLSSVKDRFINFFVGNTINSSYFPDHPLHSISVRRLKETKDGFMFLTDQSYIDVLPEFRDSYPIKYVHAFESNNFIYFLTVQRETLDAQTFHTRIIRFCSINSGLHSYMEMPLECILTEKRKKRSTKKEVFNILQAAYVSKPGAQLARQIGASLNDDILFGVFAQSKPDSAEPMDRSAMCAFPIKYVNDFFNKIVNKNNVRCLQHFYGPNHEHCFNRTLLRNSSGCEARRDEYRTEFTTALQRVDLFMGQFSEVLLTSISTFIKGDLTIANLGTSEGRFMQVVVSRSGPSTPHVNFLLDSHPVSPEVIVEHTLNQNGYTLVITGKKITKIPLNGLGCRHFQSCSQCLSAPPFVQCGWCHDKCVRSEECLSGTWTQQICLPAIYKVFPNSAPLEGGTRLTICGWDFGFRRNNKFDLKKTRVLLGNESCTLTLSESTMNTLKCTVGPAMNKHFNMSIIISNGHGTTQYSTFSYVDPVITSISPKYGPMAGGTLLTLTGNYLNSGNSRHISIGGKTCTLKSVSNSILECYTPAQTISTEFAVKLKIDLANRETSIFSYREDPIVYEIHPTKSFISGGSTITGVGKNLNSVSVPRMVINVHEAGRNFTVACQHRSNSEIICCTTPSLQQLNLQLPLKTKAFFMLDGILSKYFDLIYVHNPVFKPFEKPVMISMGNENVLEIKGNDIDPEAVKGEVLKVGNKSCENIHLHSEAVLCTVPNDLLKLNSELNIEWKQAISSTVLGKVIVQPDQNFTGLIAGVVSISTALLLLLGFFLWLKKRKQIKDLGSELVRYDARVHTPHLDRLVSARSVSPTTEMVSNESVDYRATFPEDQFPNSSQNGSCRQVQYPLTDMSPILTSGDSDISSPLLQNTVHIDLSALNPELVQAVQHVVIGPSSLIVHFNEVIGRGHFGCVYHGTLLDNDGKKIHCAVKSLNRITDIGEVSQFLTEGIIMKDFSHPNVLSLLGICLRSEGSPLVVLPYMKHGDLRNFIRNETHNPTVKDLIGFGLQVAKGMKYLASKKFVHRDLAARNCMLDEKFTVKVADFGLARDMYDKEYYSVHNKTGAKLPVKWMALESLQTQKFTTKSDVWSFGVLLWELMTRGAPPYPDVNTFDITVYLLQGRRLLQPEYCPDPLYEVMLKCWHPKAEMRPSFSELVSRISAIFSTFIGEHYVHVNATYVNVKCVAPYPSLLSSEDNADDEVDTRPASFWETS
Sequence of ALK1 (P37023 142-503 limits assumed): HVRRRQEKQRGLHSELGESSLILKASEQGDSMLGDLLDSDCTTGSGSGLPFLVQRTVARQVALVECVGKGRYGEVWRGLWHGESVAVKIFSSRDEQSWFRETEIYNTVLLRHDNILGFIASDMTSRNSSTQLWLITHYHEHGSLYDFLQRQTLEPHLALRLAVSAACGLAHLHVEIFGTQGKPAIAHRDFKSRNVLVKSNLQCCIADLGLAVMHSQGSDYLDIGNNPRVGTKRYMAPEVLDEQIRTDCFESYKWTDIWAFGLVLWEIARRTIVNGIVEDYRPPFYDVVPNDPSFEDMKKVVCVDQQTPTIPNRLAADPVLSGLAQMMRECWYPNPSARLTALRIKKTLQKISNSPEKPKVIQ
Sequence of Aurora C (Q9UQB9 whole entry): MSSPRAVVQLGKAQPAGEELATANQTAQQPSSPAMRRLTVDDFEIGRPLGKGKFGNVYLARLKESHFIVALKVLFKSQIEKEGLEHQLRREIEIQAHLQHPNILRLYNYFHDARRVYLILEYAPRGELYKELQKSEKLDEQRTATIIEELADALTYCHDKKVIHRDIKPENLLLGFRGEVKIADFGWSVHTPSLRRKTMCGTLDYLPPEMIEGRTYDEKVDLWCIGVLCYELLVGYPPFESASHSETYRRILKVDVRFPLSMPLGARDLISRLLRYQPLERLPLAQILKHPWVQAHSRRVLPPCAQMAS
Sequence of TYRO3 (Q06418 41-890): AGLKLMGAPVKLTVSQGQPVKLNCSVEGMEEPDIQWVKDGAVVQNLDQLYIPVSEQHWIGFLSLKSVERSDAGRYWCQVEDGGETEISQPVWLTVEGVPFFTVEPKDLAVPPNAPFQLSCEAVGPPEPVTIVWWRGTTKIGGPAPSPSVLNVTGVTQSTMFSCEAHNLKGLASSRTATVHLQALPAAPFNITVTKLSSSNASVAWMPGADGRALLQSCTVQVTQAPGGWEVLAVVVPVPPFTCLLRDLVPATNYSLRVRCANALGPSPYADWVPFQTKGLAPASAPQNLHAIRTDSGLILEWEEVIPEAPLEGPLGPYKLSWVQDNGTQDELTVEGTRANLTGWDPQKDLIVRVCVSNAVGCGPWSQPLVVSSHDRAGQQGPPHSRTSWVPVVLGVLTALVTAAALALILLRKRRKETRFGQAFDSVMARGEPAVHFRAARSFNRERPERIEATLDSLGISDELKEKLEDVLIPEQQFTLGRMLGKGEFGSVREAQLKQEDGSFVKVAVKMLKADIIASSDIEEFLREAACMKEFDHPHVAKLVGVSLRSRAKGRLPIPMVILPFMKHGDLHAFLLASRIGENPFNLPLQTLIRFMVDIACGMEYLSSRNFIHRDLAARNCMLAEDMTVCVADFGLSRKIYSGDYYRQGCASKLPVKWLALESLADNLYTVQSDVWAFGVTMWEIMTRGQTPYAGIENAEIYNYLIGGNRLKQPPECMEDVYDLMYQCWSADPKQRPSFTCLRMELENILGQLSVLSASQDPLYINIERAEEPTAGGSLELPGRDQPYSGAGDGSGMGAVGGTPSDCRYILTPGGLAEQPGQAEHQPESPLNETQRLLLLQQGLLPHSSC

Question: Which “effect on ZEB1” value [1] does the source give for `Nc1nc(Nc2ccc3c(c2)CC[C@@H](N2CCCC2)CC3)nn1-c1cc2c(nn1)-c1ccccc1CCC2` [BGB324] here?
Answer: downregulates ZEB1

Question: What about the “protection from SARS-CoV-2-induced cytopathic effect” value ([2]; preliminary in vitro studies) of the same compound?
Answer: protect cells from SARS-CoV-2-induced cytopathic effect

Question: What about the “inhibition of SARS-CoV-2 infection of cells” value ([2]; subsequent studies) of the same compound?
Answer: potently inhibit SARS-CoV-2 infection of cells

Question: And the “effect against lethal Ebola virus infection” value [3]?
Answer: had effect against lethal Ebola virus infection

Question: With `CCOc1ccn(-c2ccc(F)cc2)c(=O)c1C(=O)Nc1ccc(Oc2ccnc(N)c2Cl)c(F)c1` [BMS-777607] as the compound, how does the “susceptibility of treated dendritic cells to virus infection” value [4] read?
Answer: much less susceptible to virus infection than untreated cells

Question: And the “concentrations effectively blocking Gas6-triggered receptor activation” value [5]?
Answer: 30 to 3600 nM

Question: What about the “concentrations effectively blocking Gas6-triggered receptor activation” value [6] of the same compound?
Answer: 30 to 3600 nM

Question: For `Nc1ncc(-c2cnn(C3CCNCC3)c2)cc1-c1nnc(CC2CC2)o1` [SLC-391, 3-(5-(cyclopropylmethyl)-1,3,4-oxadiazol-2-yl)-5-(1-(piperidin-4-yl)-1H-pyrazol-4-yl)pyridin-2-amine], which HNSTD ([7]; 28-day dog GLP toxicology study, as defined in ICH S9) is on record?
Answer: 6 mg/kg/day

Question: And the “effects on heart rate (HR)” value [7, 46]?
Answer: no effects

Question: And the “effects on respiratory parameters” value [7, 46]?
Answer: no SLC-391-related effects

Question: And the “effects on morphology of P-QRS-T complexes, PR interval, QT, QTc intervals, QRS complex duration” value ([7]; 28-day oral gavage, Beagle dogs, males and females)?
Answer: no observable effects

Question: And the “human equivalent dose (HED) of dog HNSTD” value ([7]; from 6 mg/kg/day in dog)?
Answer: 3.3 mg/kg

Question: What about the TCID50/mL ([8]; 0.003 uM) of the same compound?
Answer: 19999 TCID50/mL

Question: What about the “Fold of virus reduction” value ([8]; 0.003 uM) of the same compound?
Answer: 34.8 fold

Question: What about the TCID50/mL ([8]; 0.4 uM) of the same compound?
Answer: 9290 TCID50/mL

Question: What about the “Fold of virus reduction” value ([8]; 0.4 uM) of the same compound?
Answer: 74.9 fold

Question: And the TCID50/mL ([8]; 10 uM)?
Answer: 731 TCID50/mL

Question: And the “Fold of virus reduction” value ([8]; 10 uM)?
Answer: 952.9 fold

Question: What about the “reduction in levels of phosphorylated Akt” value [9] of the same compound?
Answer: 41%

Question: And the “therapeutic index (TI), TC50 divided by EC50” value [10]?
Answer: above 71.4

Question: And the inhibition at 0.1 µM [11]?
Answer: 69%

Question: And the IC50 [12]?
Answer: 31 nM

Question: And the IC50 [13]?
Answer: 12 nM

Question: What about the IC50 [14] of the same compound?
Answer: 51 nM

Question: What about the IC50 [15] of the same compound?
Answer: 45 nM

Question: What about the IC50 [16] of the same compound?
Answer: 62 nM

Question: What about the IC50 [17] of the same compound?
Answer: 23 nM

Question: And the IC50 [18]?
Answer: 28 nM

Question: What about the EC50 [19] of the same compound?
Answer: 140 nM

Question: What about the inhibition at 0.2 µM [20] of the same compound?
Answer: ~75%

Question: And the severe toxic dose ([21]; 28-day rat GLP study, highest dose tested)?
Answer: 70 mg/kg/day

Question: And the “human equivalent dose (HED) of rat severe toxic dose” value ([21]; from 70 mg/kg/day in rat)?
Answer: 11.3 mg/kg

Question: What about the IC50 [22] of the same compound?
Answer: 9.6 nM

Question: What about the inhibition at 0.1 µM [23] of the same compound?
Answer: 64%

Question: And the “impairment of anchorage-independent cell proliferation” value [24]?
Answer: complete inhibition

Question: What about the inhibition at 0.1 µM [25] of the same compound?
Answer: 61%

Question: And the inhibition at 0.1 µM [26]?
Answer: 64%

Question: What about the IC50 [27] of the same compound?
Answer: > 30000 nM

Question: And the “exposure in human subjects” value [28]?
Answer: excellent exposure

Question: And the “Ames screening test result” value [29]?
Answer: negative

Question: What about the IC50 [30] of the same compound?
Answer: 1050 nM

Question: What about the IC50 [31] of the same compound?
Answer: 42.3 nM

Question: What about the IC50 [32] of the same compound?
Answer: 3450 nM

Question: What about the Flowscreen assay classification [33] of the same compound?
Answer: potentially genotoxic with an aneugenic mechanism of action

Question: And the viability at 0.003 µM [34]?
Answer: 100%

Question: And the viability at 0.4 µM [34]?
Answer: 95%

Question: And the viability at 10 µM [34]?
Answer: 80%

Question: And the “inhibition of SARS-CoV-2 infection (qPCR cycles)” value ([35]; 0.01 μM, for 24 hours)?
Answer: effectively inhibit the viral infection

Question: And the “inhibition of SARS-CoV-2 infection (qPCR cycles)” value ([35]; 1 μM, up to 72 hours)?
Answer: high degree of viral inhibition

Question: And the CC50 [36]?
Answer: > 10000 nM

Question: And the IC50 [37]?
Answer: 63.5 nM

Question: And the “genotoxic response, rat micronucleus assay” value [38]?
Answer: potential genotoxic response was observed

Question: And the “tolerability in human subjects” value [39]?
Answer: well tolerated

Question: What about the “neutralization of SARS-CoV-2 pseudovirus” value [40] of the same compound?
Answer: completely neutralize

Question: And the NOAEL at 28 day [41]?
Answer: 30 mg/kg/day

Question: And the “tumor growth inhibition (TGI)” value ([42]; 50 mg/kg BID)?
Answer: 60%

Question: What about the “tumor growth inhibition (TGI)” value ([42]; 75 mg/kg BID) of the same compound?
Answer: 67%

Question: And the IC50 [43]?
Answer: 290 nM

Question: What about the “Ames screening test result” value [44] of the same compound?
Answer: negative

Question: And the “reduction of cell migration” value [45]?
Answer: less than 40%
